{"source": "paper PMC10912062", "about": "“A novel PET probe to selectively image heat shock protein 90α/β isoforms in the brain” (EJNMMI Radiopharmacy and Chemistry, 2024)", "assay_in_all_cases": "biochemical", "conditions_in_all_cases": "read-out: Percentage of inhibition / BIIB021 1×10-5 mol/L; competitive radioligand binding", "key": {"Adenosine A1 (Human)": {"biological_target": "T1, Adenosine A1 (Human) (Homo sapiens, UniProt P30542)", "T1 construct": "gene ADORA1", "protocol": "(§1) Percent inhibition for each protein was calculated following the reported method (Okamura et al. [2013])."}, "Adenosine A2a (Human)": {"biological_target": "T2, Adenosine A2a (Human) (Homo sapiens, UniProt P29274)", "T2 construct": "gene ADORA2A", "T2 sequence (P29274 whole entry)": "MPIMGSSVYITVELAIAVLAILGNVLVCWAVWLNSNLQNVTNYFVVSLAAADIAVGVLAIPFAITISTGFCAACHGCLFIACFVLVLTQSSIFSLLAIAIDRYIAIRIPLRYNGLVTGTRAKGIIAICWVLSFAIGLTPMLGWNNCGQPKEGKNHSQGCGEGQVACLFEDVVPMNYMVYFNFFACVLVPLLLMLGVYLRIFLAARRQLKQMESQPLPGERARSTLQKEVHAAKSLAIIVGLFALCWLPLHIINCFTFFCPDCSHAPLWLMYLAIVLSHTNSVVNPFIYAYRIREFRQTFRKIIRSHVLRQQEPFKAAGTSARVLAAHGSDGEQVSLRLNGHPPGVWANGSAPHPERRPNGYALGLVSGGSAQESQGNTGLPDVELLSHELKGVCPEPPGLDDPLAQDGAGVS", "protocol": "as §1"}, "Androgen": {"biological_target": "T3, Androgen (Rattus norvegicus, UniProt P15207)", "T3 construct": "gene Ar", "protocol": "as §1"}, "Angiotensin AT1 (Human)": {"biological_target": "T4, Angiotensin AT1 (Human) (Homo sapiens, UniProt P30556)", "T4 construct": "gene AGTR1", "protocol": "as §1"}, "Bradykinin B1 (Human)": {"biological_target": "T5, Bradykinin B1 (Human) (Homo sapiens, UniProt P46663)", "T5 construct": "gene BDKRB1", "protocol": "as §1"}, "Bradykinin B2 (Human)": {"biological_target": "T6, Bradykinin B2 (Human) (Homo sapiens, UniProt P30411)", "T6 construct": "gene BDKRB2", "protocol": "as §1"}, "CCK A (Human)": {"biological_target": "T7, CCK A (Human) (Homo sapiens, UniProt P32238)", "T7 construct": "gene CCKAR", "protocol": "as §1"}, "Cannabinoid CB1 (Human)": {"biological_target": "T8, Cannabinoid CB1 (Human) (Homo sapiens, UniProt P21554)", "T8 construct": "gene CNR1", "T8 sequence (P21554 whole entry)": "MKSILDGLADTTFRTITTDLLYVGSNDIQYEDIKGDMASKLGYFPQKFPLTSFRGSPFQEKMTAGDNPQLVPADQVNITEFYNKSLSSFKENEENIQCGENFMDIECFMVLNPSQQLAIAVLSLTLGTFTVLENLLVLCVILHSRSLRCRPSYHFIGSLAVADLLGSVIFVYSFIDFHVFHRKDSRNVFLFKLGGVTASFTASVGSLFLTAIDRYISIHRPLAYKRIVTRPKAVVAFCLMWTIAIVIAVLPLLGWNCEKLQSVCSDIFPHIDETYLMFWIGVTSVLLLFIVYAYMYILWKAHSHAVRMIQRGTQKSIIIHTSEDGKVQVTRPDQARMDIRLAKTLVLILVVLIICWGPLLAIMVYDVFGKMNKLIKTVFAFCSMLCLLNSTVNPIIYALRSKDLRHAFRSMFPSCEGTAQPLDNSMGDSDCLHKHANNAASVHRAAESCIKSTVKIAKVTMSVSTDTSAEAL", "protocol": "as §1"}, "Cannabinoid CB2 (Human)": {"biological_target": "T9, Cannabinoid CB2 (Human) (Homo sapiens, UniProt P34972)", "T9 construct": "gene CNR2", "T9 sequence (P34972 whole entry)": "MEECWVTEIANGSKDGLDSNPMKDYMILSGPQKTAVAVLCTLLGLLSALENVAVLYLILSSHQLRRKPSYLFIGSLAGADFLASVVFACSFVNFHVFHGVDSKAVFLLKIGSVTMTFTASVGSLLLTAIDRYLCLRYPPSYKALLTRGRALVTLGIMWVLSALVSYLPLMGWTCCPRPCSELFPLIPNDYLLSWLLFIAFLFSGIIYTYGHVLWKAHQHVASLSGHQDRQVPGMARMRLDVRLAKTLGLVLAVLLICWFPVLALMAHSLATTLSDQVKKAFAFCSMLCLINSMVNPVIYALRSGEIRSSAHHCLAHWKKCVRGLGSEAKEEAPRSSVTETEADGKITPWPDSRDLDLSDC", "protocol": "as §1"}, "Dopamine D1 (Human)": {"biological_target": "T10, Dopamine D1 (Human) (Homo sapiens, UniProt P21728)", "T10 construct": "gene DRD1", "protocol": "as §1"}, "[1]": {"biological_target": "T11, Dopamine D2 short (Human) (Homo sapiens, UniProt P14416)", "T11 construct": "gene DRD2; short isoform", "protocol": "as §1"}, "Dopamine D3 (Human)": {"biological_target": "T12, Dopamine D3 (Human) (Homo sapiens, UniProt P35462)", "T12 construct": "gene DRD3", "protocol": "as §1"}, "[2]": {"biological_target": "T13, Dopamine transporter (Human) (Homo sapiens, UniProt Q01959)", "T13 construct": "gene SLC6A3", "T13 sequence (Q01959 whole entry)": "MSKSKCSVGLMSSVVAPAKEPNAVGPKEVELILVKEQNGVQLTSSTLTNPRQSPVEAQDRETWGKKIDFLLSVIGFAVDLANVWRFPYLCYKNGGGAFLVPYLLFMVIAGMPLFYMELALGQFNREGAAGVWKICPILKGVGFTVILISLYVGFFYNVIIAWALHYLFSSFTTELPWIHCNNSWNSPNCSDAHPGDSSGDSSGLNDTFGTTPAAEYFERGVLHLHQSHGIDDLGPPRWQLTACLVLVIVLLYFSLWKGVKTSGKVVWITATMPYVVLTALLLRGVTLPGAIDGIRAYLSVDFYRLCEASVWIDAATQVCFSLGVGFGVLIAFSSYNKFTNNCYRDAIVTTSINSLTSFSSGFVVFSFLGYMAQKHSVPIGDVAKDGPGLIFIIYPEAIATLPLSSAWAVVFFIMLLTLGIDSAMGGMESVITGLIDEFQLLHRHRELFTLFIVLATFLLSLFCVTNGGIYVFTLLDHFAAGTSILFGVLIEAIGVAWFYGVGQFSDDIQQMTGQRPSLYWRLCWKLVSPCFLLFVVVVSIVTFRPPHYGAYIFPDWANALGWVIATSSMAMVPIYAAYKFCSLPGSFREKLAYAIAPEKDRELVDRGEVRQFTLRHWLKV", "protocol": "as §1"}, "Endothelin ETA (Human)": {"biological_target": "T14, Endothelin ETA (Human) (Homo sapiens, UniProt P25101)", "T14 construct": "gene EDNRA", "protocol": "as §1"}, "Endothelin ETB (Human)": {"biological_target": "T15, Endothelin ETB (Human) (Homo sapiens, UniProt P24530)", "T15 construct": "gene EDNRB", "protocol": "as §1"}, "GABA B": {"biological_target": "T16, GABA B (Rattus norvegicus, UniProt Q9Z0U4)", "T16 construct": "gene Gabbr1", "protocol": "as §1"}, "Glucocorticoid (Human)": {"biological_target": "T17, Glucocorticoid (Human) (Homo sapiens, UniProt P04150)", "T17 construct": "gene NR3C1", "T17 sequence (P04150 whole entry)": "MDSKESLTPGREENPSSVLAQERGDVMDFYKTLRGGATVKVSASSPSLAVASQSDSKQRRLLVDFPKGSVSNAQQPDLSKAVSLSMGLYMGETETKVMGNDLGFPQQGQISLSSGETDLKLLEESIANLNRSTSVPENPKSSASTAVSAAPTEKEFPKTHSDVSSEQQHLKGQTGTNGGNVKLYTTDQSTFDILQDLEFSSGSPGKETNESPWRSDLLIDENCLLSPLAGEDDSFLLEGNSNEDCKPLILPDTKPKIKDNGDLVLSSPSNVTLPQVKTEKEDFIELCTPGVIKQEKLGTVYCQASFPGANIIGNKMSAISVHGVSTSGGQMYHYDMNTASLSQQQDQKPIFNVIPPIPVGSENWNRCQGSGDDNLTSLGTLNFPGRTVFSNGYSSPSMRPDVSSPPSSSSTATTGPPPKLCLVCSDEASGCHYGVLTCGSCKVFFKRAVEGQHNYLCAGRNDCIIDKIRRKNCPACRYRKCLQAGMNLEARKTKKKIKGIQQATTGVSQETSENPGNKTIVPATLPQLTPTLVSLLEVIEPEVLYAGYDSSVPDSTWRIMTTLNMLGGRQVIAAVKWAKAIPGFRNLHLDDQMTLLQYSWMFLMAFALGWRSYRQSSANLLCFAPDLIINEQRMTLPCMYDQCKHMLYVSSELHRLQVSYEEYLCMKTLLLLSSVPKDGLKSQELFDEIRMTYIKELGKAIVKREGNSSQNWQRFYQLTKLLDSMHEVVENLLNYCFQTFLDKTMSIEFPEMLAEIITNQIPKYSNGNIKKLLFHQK", "protocol": "as §1"}, "Histamine H1 (Human)": {"biological_target": "T18, Histamine H1 (Human) (Homo sapiens, UniProt P35367)", "T18 construct": "gene HRH1", "T18 sequence (P35367 whole entry)": "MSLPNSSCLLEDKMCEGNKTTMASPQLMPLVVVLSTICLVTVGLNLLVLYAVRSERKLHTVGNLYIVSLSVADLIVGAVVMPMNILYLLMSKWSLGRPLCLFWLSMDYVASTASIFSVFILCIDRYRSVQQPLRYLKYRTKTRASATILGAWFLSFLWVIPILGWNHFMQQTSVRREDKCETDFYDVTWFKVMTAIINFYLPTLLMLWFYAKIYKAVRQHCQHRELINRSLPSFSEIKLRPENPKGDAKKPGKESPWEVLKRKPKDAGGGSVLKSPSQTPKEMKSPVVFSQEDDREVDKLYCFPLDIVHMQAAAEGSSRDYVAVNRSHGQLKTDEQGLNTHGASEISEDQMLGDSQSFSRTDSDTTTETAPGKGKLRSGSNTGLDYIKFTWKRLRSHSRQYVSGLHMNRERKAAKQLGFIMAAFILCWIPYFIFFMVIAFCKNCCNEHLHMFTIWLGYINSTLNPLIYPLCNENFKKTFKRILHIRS", "protocol": "as §1"}, "Histamine H2 (Human)": {"biological_target": "T19, Histamine H2 (Human) (Homo sapiens, UniProt P25021)", "T19 construct": "gene HRH2", "protocol": "as §1"}, "Histamine H3 (Human)": {"biological_target": "T20, Histamine H3 (Human) (Homo sapiens, UniProt Q9Y5N1)", "T20 construct": "gene HRH3", "protocol": "as §1"}, "Melatonin MT1 (Human)": {"biological_target": "T21, Melatonin MT1 (Human) (Homo sapiens, UniProt P48039)", "T21 construct": "gene MTNR1A", "protocol": "as §1"}, "Muscarinic M1 (Human)": {"biological_target": "T22, Muscarinic M1 (Human) (Homo sapiens, UniProt P11229)", "T22 construct": "gene CHRM1", "protocol": "as §1"}, "Muscarinic M2 (Human)": {"biological_target": "T23, Muscarinic M2 (Human) (Homo sapiens, UniProt P08172)", "T23 construct": "gene CHRM2", "protocol": "as §1"}, "Muscarinic M3 (Human)": {"biological_target": "T24, Muscarinic M3 (Human) (Homo sapiens, UniProt P20309)", "T24 construct": "gene CHRM3", "protocol": "as §1"}, "Neurokinin NK1 (Human)": {"biological_target": "T25, Neurokinin NK1 (Human) (Homo sapiens, UniProt P25103)", "T25 construct": "gene TACR1", "T25 sequence (P25103 whole entry)": "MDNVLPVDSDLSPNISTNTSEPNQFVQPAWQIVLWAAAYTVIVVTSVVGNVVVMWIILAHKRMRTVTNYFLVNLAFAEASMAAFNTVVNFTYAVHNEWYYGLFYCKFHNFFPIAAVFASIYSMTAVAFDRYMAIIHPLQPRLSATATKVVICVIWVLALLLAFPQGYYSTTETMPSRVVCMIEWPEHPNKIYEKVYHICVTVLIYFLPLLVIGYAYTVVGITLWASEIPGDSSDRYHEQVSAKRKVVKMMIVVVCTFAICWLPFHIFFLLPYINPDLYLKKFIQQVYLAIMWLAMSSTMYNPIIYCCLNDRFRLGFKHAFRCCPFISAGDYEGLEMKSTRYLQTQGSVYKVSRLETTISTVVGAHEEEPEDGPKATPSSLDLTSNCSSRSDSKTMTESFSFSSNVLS", "protocol": "as §1"}, "Neuropeptide Y2 (Human)": {"biological_target": "T26, Neuropeptide Y2 (Human) (Homo sapiens, UniProt P49146)", "T26 construct": "gene NPY2R", "protocol": "as §1"}, "[3]": {"biological_target": "T27, Norepinephrine transporter (Human) (Homo sapiens, UniProt P23975)", "T27 construct": "gene SLC6A2", "protocol": "as §1"}, "Opiate δ (Human)": {"biological_target": "T28, Opiate δ (Human) (Homo sapiens, UniProt P41143)", "T28 construct": "gene OPRD1", "protocol": "as §1"}, "Opiate κ (Human)": {"biological_target": "T29, Opiate κ (Human) (Homo sapiens, UniProt P41145)", "T29 construct": "gene OPRK1", "T29 sequence (P41145 whole entry)": "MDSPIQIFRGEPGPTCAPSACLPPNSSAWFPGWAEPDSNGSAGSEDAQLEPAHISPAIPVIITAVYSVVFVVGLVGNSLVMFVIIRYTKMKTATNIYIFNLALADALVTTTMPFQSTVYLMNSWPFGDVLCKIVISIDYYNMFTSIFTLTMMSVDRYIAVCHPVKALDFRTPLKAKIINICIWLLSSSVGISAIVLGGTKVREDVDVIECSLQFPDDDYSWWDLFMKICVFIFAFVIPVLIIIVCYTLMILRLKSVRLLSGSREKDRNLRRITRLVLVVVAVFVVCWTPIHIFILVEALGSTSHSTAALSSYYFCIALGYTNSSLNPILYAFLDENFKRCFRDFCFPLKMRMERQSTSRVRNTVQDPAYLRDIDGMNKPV", "protocol": "as §1"}, "Opiate μ (Human)": {"biological_target": "T30, Opiate μ (Human) (Homo sapiens, UniProt P35372)", "T30 construct": "gene OPRM1", "T30 sequence (P35372 whole entry)": "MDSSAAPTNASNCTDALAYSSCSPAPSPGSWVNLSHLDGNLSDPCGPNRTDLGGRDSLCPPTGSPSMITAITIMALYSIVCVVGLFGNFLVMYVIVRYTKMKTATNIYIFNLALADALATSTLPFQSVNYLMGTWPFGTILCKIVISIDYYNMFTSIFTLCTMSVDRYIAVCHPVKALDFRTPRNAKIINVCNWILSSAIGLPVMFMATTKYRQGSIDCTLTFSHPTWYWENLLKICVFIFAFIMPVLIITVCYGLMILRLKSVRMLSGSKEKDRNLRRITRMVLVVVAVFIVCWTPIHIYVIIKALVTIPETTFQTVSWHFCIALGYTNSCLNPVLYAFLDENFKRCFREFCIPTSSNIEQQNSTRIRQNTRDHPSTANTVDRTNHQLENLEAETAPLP", "protocol": "as §1"}, "Serotonin 5HT1A (Human)": {"biological_target": "T31, Serotonin 5HT1A (Human) (Homo sapiens, UniProt P08908)", "T31 construct": "gene HTR1A", "T31 sequence (P08908 whole entry)": "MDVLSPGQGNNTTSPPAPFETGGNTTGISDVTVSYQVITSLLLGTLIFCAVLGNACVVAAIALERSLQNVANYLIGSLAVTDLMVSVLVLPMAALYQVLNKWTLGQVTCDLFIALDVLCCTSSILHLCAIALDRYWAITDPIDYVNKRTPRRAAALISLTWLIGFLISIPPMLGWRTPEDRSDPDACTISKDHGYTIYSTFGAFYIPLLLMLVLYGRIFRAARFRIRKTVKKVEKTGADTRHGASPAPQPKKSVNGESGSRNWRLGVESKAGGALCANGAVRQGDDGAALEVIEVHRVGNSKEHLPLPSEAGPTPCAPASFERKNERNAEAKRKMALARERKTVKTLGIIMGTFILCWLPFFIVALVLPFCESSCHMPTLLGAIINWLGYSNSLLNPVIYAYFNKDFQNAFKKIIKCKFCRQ", "protocol": "as §1"}, "Serotonin 5HT2A (Human)": {"biological_target": "T32, Serotonin 5HT2A (Human) (Homo sapiens, UniProt P28223)", "T32 construct": "gene HTR2A", "protocol": "as §1"}, "Serotonin 5HT3 (Human)": {"biological_target": "T33, Serotonin 5HT3 (Human) (Homo sapiens, UniProt P46098)", "T33 construct": "gene HTR3A", "protocol": "as §1"}, "[4]": {"biological_target": "T34, Serotonin transporter (Human) (Homo sapiens, UniProt P31645)", "T34 construct": "gene SLC6A4", "protocol": "as §1"}, "Sigma σ2": {"biological_target": "T35, Sigma σ2 (Rattus norvegicus, UniProt Q5U3Y7)", "T35 construct": "gene Tmem97", "T35 sequence (Q5U3Y7 whole entry)": "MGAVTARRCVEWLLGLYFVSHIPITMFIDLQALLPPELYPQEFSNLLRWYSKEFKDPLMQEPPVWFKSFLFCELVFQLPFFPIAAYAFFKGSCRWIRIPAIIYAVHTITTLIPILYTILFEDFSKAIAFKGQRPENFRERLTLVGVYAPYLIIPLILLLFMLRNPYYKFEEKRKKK", "protocol": "as §1"}, "Vasopressin V1": {"biological_target": "T36, Vasopressin V1 (Rattus norvegicus, UniProt P30560)", "T36 construct": "gene Avpr1a", "protocol": "as §1"}, "α1A-Adrenergic": {"biological_target": "T37, α1A-Adrenergic (Rattus norvegicus, UniProt P43140)", "T37 construct": "gene Adra1a", "protocol": "as §1"}, "α1B-Adrenergic": {"biological_target": "T38, α1B-Adrenergic (Rattus norvegicus, UniProt P15823)", "T38 construct": "gene Adra1b", "protocol": "as §1"}, "α2A-Adrenergic (Human)": {"biological_target": "T39, α2A-Adrenergic (Human) (Homo sapiens, UniProt P08913)", "T39 construct": "gene ADRA2A", "protocol": "as §1"}, "α2B-Adrenergic (Human)": {"biological_target": "T40, α2B-Adrenergic (Human) (Homo sapiens, UniProt P18089)", "T40 construct": "gene ADRA2B", "protocol": "as §1"}, "β1-Adrenergic (Human)": {"biological_target": "T41, β1-Adrenergic (Human) (Homo sapiens, UniProt P08588)", "T41 construct": "gene ADRB1", "protocol": "as §1"}, "β2-Adrenergic (Human)": {"biological_target": "T42, β2-Adrenergic (Human) (Homo sapiens, UniProt P07550)", "T42 construct": "gene ADRB2", "protocol": "as §1"}}}
{"compound": "COc1c(C)cnc(Cn2cnc3c(Cl)nc(N)nc32)c1C", "note": "[BIIB021, 6-Chloro-9-[(4-methoxy-3,5-dimethylpyridin-2-yl)methyl]-9H-purin-2-amine]", "values": [{"measurement": "inhibition at 10 µM", "setting": "Adenosine A1 (Human)", "value": 8.4, "unit": "%"}, {"measurement": "inhibition at 10 µM", "setting": "Adenosine A2a (Human)", "value": 14, "unit": "%"}, {"measurement": "inhibition at 10 µM", "setting": "Androgen", "value": 0.7, "unit": "%"}, {"measurement": "inhibition at 10 µM", "setting": "Angiotensin AT1 (Human)", "value": 0, "unit": "%"}, {"measurement": "inhibition at 10 µM", "setting": "Bradykinin B1 (Human)", "value": 0, "unit": "%"}, {"measurement": "inhibition at 10 µM", "setting": "Bradykinin B2 (Human)", "value": 0, "unit": "%"}, {"measurement": "inhibition at 10 µM", "setting": "CCK A (Human)", "value": 2.8, "unit": "%"}, {"measurement": "inhibition at 10 µM", "setting": "Cannabinoid CB1 (Human)", "value": 5.1, "unit": "%"}, {"measurement": "inhibition at 10 µM", "setting": "Cannabinoid CB2 (Human)", "value": 0, "unit": "%"}, {"measurement": "inhibition at 10 µM", "setting": "Dopamine D1 (Human)", "value": 16, "unit": "%"}, {"measurement": "inhibition at 10 µM", "setting": "[1]", "value": 0.9, "unit": "%"}, {"measurement": "inhibition at 10 µM", "setting": "Dopamine D3 (Human)", "value": 0.4, "unit": "%"}, {"measurement": "inhibition at 10 µM", "setting": "[2]", "value": 1.1, "unit": "%"}, {"measurement": "inhibition at 10 µM", "setting": "Endothelin ETA (Human)", "value": 4.8, "unit": "%"}, {"measurement": "inhibition at 10 µM", "setting": "Endothelin ETB (Human)", "value": 4.7, "unit": "%"}, {"measurement": "inhibition at 10 µM", "setting": "GABA B", "value": 0, "unit": "%"}, {"measurement": "inhibition at 10 µM", "setting": "Glucocorticoid (Human)", "value": 0, "unit": "%"}, {"measurement": "inhibition at 10 µM", "setting": "Histamine H1 (Human)", "value": 8.1, "unit": "%"}, {"measurement": "inhibition at 10 µM", "setting": "Histamine H2 (Human)", "value": 0.7, "unit": "%"}, {"measurement": "inhibition at 10 µM", "setting": "Histamine H3 (Human)", "value": 4.5, "unit": "%"}, {"measurement": "inhibition at 10 µM", "setting": "Melatonin MT1 (Human)", "value": 26, "unit": "%"}, {"measurement": "inhibition at 10 µM", "setting": "Muscarinic M1 (Human)", "value": 1.5, "unit": "%"}, {"measurement": "inhibition at 10 µM", "setting": "Muscarinic M2 (Human)", "value": 4.6, "unit": "%"}, {"measurement": "inhibition at 10 µM", "setting": "Muscarinic M3 (Human)", "value": 1.9, "unit": "%"}, {"measurement": "inhibition at 10 µM", "setting": "Neurokinin NK1 (Human)", "value": 6.2, "unit": "%"}, {"measurement": "inhibition at 10 µM", "setting": "Neuropeptide Y2 (Human)", "value": 1.3, "unit": "%"}, {"measurement": "inhibition at 10 µM", "setting": "[3]", "value": 0, "unit": "%"}, {"measurement": "inhibition at 10 µM", "setting": "Opiate δ (Human)", "value": 4.2, "unit": "%"}, {"measurement": "inhibition at 10 µM", "setting": "Opiate κ (Human)", "value": 14, "unit": "%"}, {"measurement": "inhibition at 10 µM", "setting": "Opiate μ (Human)", "value": 0, "unit": "%"}, {"measurement": "inhibition at 10 µM", "setting": "Serotonin 5HT1A (Human)", "value": 7.6, "unit": "%"}, {"measurement": "inhibition at 10 µM", "setting": "Serotonin 5HT2A (Human)", "value": 4.9, "unit": "%"}, {"measurement": "inhibition at 10 µM", "setting": "Serotonin 5HT3 (Human)", "value": 18, "unit": "%"}, {"measurement": "inhibition at 10 µM", "setting": "[4]", "value": 0, "unit": "%"}, {"measurement": "inhibition at 10 µM", "setting": "Sigma σ2", "value": 2.4, "unit": "%"}, {"measurement": "inhibition at 10 µM", "setting": "Vasopressin V1", "value": 3, "unit": "%"}, {"measurement": "inhibition at 10 µM", "setting": "α1A-Adrenergic", "value": 1.8, "unit": "%"}, {"measurement": "inhibition at 10 µM", "setting": "α1B-Adrenergic", "value": 0, "unit": "%"}, {"measurement": "inhibition at 10 µM", "setting": "α2A-Adrenergic (Human)", "value": 13, "unit": "%"}, {"measurement": "inhibition at 10 µM", "setting": "α2B-Adrenergic (Human)", "value": 0, "unit": "%"}, {"measurement": "inhibition at 10 µM", "setting": "β1-Adrenergic (Human)", "value": 0, "unit": "%"}, {"measurement": "inhibition at 10 µM", "setting": "β2-Adrenergic (Human)", "value": 0.9, "unit": "%"}]}
